Experimental data: patent US20160340683A1, “NANOCARRIER BASED PLANT TRANSFECTION AND TRANSDUCTION” (HER MAJESTY THE QUEEN IN RIGHT OF CANADA AS REPRESENTED BY …, priority 2007, published 2016)
fluorescein = fluorescein label at the N-terminus

test system: scutellum and somatic embryos of triticale; test: CPP delivery of mCherry protein, confocal microscopy; assay type: cell-based; settings: mCherry 1 μM with 60 μM CPP, overnight at RT
Text: The fluorescent mCherry protein was chosen as the protein, while scutellum (dissected out of immature caryopses) and isolated microspore culture-derived somatic embryos of triticale were used as choice of tissue. Both scutellum and somatic embryos are amenable to tissue culture and can undergo somatic embryogenesis to regenerate green plants providing a direct means to obtain modified plants following a biocompatible CPP induced transduction. Scutellum is representative of a diploid tissue while microspore culture derived somatic embryos is a haploid tissue.
The protein:CPP complex was prepared by individually mixing mCherry protein (1 μM) with 60 μM of the 3 CPPs. Both scutellum and somatic embryos of triticale were treated with these different complex formulations overnight at RT. […] The red fluorescent signal was detected by confocal microscopy within both scutellum and somatic embryo cells.

Row | Substance | Delivery of mCherry inside the cells, red fluorescent signal
1 | RRIRRRLRRRPKPRRRRRRR [CPP17] | able to interact noncovalently with mCherry, subsequently delivering it inside the cells
2 | RRRRCTRRRTRSRRRPRR [CPP3] | able to interact noncovalently with mCherry, subsequently delivering it inside the cells
3 | RRRRRRRRHLRR [CPP34] | able to interact noncovalently with mCherry, subsequently delivering it inside the cells

test system: immature embryos; test: Translocation of fluoresceinated CPPs in zygotic embryos, fluorescence microscopy; assay type: cell-based, Triticale cv AC Alta; settings: in the presence of cellular permeabilizing agent (toluene)
Procedure: The embryos were isolated from spikes two weeks post-anthesis (scutellum diameter 1-2 mm). The immature seeds were surface sterilized with 70% ethanol for 30 s followed by treatment with 10% hypochlorite (Chlorex) and a drop of Tween 20, 3 min. Four washings of 1 min each were given with sterile water. The embryos were hand dissected under sterile conditions. Isolated embryos were placed on GEM medium (Eudes et al, 2003) for 24 h in dark at room temperature prior to CPP translocation studies.
Isolated and sterilized embryos (20-25) were imbibed in total volume of 420 μl permeabilization buffer (15 mM sodium chloride, 1.5 mM sodium citrate, pH 7.1) containing cellular permeabilization agent toluene/ethanol (1:4) in 1:20 ratio with permeabilization buffer. To this 2.1 μl of 1 mM fluoresceinated CPP was added to give a final concentration of 5 μM. In negative controls, the embryos were treated with FITC-dextran sulphate or M-Tat. The embryos were incubated in the permeabilization mix for 1 h in dark at room temperature, followed by two washings with permeabilization buffer. The embryos were then treated with trypsin:EDTA (0.25% solution, Sigma-Aldrich) in 1:2 ratio with permeabilization buffer for 5 min at room temperature to remove free peptide molecules. Embryos were washed two times with permeabilization buffer and subjected either for fluorescence microscopy or spectrofluorimetric analysis.

Row | Substance | Uptake seen by fluorescence microscopy (FIG. 1)
4 | Dextran Sulphate | some fluorescence

same assay, conditions: mature and immature embryos, with or without permeabilization

Row | Substance | Fluorescence under fluorescence microscope, overall comparison
5 | Dextran Sulphate | none or very weak fluorescence
6 | FI-LLIILRRRIRKQAHAHSK-amide (fluorescein-LLIILRRRIRKQAHAHSK-NH2) [pVEC] | least uptake

same assay, conditions: without cellular permeabilizing agent

Row | Substance | Uptake seen by fluorescence microscopy (FIG. 1)
7 | Dextran Sulphate | did not demonstrate any significant uptake

test system: isolated microspores of Triticale (variety Sunray); test: CPP delivery of GUS enzyme into isolated microspores, GUS staining; assay type: cell-based; settings: GUS enzyme cargo:CPP 1:4, 1 hour at 37° C., three repeats
Procedure: Triticale line Sunray grown in a growth cabinet with a photoperiod of 19 h day (intensity 300 μE m-2 s-1), and temperature 18-15° C. (day-night) with a relative humidity at about 70% was used as the donor plant material. The plants were fertilized every 2 weeks (20-20-20, 200 ppm) and treated with 2.5 ml I-1 Tilt™ (propiconazole, Syngenta) during the tillering stage and Intercept™ (0.004 g per litre of soil, Imidacloprid, Bayer) once sufficient root development was established. The first 10 tillers from each pot were harvested when the spike was at 3-4 cm, depending on the crop, from emergence from the boot. These tillers (to be used for microspore isolation) were subjected to pre-treatment in a refrigerator (4° C.) for 21 days with their bases in distilled water and their heads wrapped in aluminum foil. After 21±3 days of pre-treatment, the spikes were excised from their tillers and after an evaluation of their general appearance, only the most homogenous spikes were used. After confirming microspores at mid to bi-nucleate stage from a median floret, using acetocarmine staining, the tillers were processed for extraction.
Awns were removed with scissors in a laminar flow hood. Eight-fourteen spikes were used for microspore isolation. They were sterilized with 10% bleach (5.25% sodium hypochlorite) for 3 min followed by rinsing in sterile double distilled water four times of 1 min each with constant agitation. Outer glumes were removed and florets from all the spikes were aseptically dissected and transferred to a sterile and refrigerated 110 ml Warring blender cup (VWR international, #58983-093) containing 50 ml filter sterilized extraction buffer at 4° C. Florets were then blended twice for 7 s at low speed (18000 rpm). The slurry was then poured through a 1 mm sieve followed by pouring through a 100 μm sterile mesh (VWR International, #CA21008-950) into two 50 ml centrifuge tubes (25 ml each). The blender cup was rinsed with 50 ml extraction buffer at 4° C. and poured through the 100 μm mesh and was added to the first aliquot in the 50 ml tubes. The cells were then pelleted by centrifugation (100×g for 5 min at 4° C.) using a swinging bucket rotor. After pouring off the supernatant, the microspore-containing pellets were pooled together in one 50 ml tube and re-suspended in 50 ml cold extraction buffer. The cells were pelleted again with centrifugation (100×g for 5 min at 4° C.), the supernatant poured off and the pellet was transferred to a 15 ml tube. After re-suspending the pellet in CIMC Wash Buffer supplemented with 10 microM SS-31 peptide, it was subjected to wash and centrifugation using the above conditions. The supernatant was removed and the pellet was re-suspended in CIMC Wash buffer and centrifugation was repeated as above. The pellet was then suspended in 7 mL of 20% maltose at 4° C., layered with 1 mL of CIMC wash buffer and was centrifuged at 100 g for 13 min at 4° C. A band of microspores formed at the interface was collected in a new 15 ml tube. The cells were diluted with CIMC wash solution and subsequently collected by centrifugation at 150 g for 5 min. The supernatant was removed and the cells were finally suspended in a total volume of 1.4 ml of appropriate solution. After counting the cells using a haemocytometer, aliquots of 100,000 cells in 200 μl volume were prepared in 2 ml microcentrifuge tubes to be ready for transduction.
Peptide stock solutions were made in water at 1 μg/μl concentration. CPP (Nanocarrier) and GUS enzyme (cargo) were first prepared in separate microcentrifuge tubes. A total of 4 μg of CPP was prepared in sterile water to a final volume of 100 μl. Similarly, 1 μg of GUS enzyme was added to sterile water to a final volume of 100 μl. The contents of the two tubes were mixed together giving a ratio of 1:4 protein cargo:CPP. The complex was incubated for 30 min at room temperature (RT). Chariot (PAP1) protein delivering reagent was used as a positive control in the experiments. […]

Row | Substance | Average Transduction Efficiency [%]
8 | KAKKNRSHIGKLKMTKTSGRKRSR [CPP21] | 0
9 | KEKKKERRGVRDKERDK [CPP53] | 0
10 | KGHRFRSKFRHYRFRFR [CPP45] | 0
11 | KKKGKGKKKKQGK [CPP4] | 0
12 | KKKKKKKRPTALTPTPSLLRRRRRRR [CPP26] | 0
13 | KRKKSGKKKKIGRFLSRLVGAEKRR [CPP9] | 5.79
14 | KRKPKGGDAAEGSEKRKPKKKK [CPP16] | 0
15 | KRRRSWRRRRSRTRQRRRRSRRRRRRRR [CPP41] | 21.17
16 | KSKANRHRHHRRHRQQKPTTTRRRRR [CPP64] | 5.40
17 | KTAATTLRRRRRRRRGRR [CPP28] | 5.61
18 | MALERPWKRRRRRRR [CPP47] | 0
19 | MDERRRRRRRLTATRKVAAARRRRKRR [CPP54] | 6.21
20 | MRRRRRRRRR [CPP48] | 1.09
21 | RAGVDGRGRRRRRRRR [CPP50] | 1.31
22 | RARRRSTARRRKRRTPTRSGR [CPP32] | 1.26
23 | RAWYRFRHLVRGKWRERLRRKFK [CPP62] | 9.78
24 | RCRRRRRRRETTSR [CPP67] | 0
25 | RKEKKRIKQRKAFIMAEKKKRK [CPP13] | 0
26 | RKKKGKRKEERER [CPP55] | 0
27 | RKQPGRKPGVRTARPKRSKKSQLKK [CPP58] | 0
28 | RKRKEENTGRRRRRRRERKRR [CPP22] | 1.94
29 | RKRKRGKGIGSGRGRGRGR [CPP43] | 0
30 | RKRKRGKGIGSGRGRGRGRASGSEKGRGSGKGKAK [CPP44] | 11.27

Row | Substance | Average Transduction Efficiency [%]
31 | RLKRRRRRRRKVSRR [CPP33] | 15.67
32 | RLRRLLLPLRRRRRLRQRRR [CPP25] | 8.7
33 | RPLPLPLPLPRGPRRRRRRR [CPP30] | 0
34 | RRARRRTRRGGGEAGRRQERRRRRRRR [CPP31] | 0
35 | RRDGVPRRRRRRRHMGRQR [CPP27] | 2.06
36 | RRFRRTAPRAAGEARGLRRLRKSR [CPP57] | 5.77
37 | RRGWRWRSAPRGGSRRRRRRRR [CPP12] | 5.25
38 | RRHRQQKPTTTRRRRR [CPP65] | 0
39 | RRIRRRLRRRPKPRRRRRRR [CPP17] | 46.54
40 | RRKNDKPKTGGEKKSTKDAPESSKKKNRK [CPP61] | 0
41 | RRLRCRREGKEKR [CPP60] | 0
42 | RRLTTGLSFYSKPYRRSRGPRHRTEKRKRIR [CPP56] | 5.47
43 | RRPHSRHRRRRRRR [CPP10] | 0
44 | RRRGIKPNAKRRRRRRRR [CPP23] | 0
45 | RRRGRRRRRRRRQRQQRR [CPP6] | 15.07
46 | RRRGRRRRRRRRQRQQRRQEGNRRR [CPP5] | 5.88
47 | RRRIAGSALVGAPPQARRRRRRR [CPP52] | 0
48 | RRRKGSSYRRRRRRRRR [CPP20] | 0
49 | RRRPRPARLRHRLHRPINLKFERK [CPP15] | 9.23
50 | RRRQERRER [CPP63] | 0
51 | RRRRARGKRCWLRRRRRR [CPP49] | 11.89
52 | RRRRCTRRRTRSRRRPRR [CPP3] | 57.63
53 | RRRRKKRGRKGRDKEERRDR [CPP42] | 1.20

Row | Substance | Average Transduction Efficiency [%]
54 | RRRRKKRGRKGRDKEERRDRRRRRRR [CPP11] | 16.61
55 | RRRRKKRGRKGRDKEERRDRRRRRRR [CPP40] | 11.74
56 | RRRRRITRVRRRRRRR [CPP39] | 13.15
57 | RRRRRRRAGERRAREDMGRRKFR [CPP19] | 0
58 | RRRRRRREKLAEATRGGGEKR [CPP35] | 0
59 | RRRRRRRGRDARRR [CPP8] | 2.78
60 | RRRRRRRRHEQRRRRRKRGRGR [CPP2] | 18.7
61 | RRRRRRRRHGRR [CPP24] | 18.77
62 | RRRRRRRRHLRR [CPP34] | 47.13
63 | RRRRRRRRRRKRGGRR [CPP14] | 0
64 | RRRRRRRRRRVRFDSRR [CPP7] | 16.63
65 | RRRRWRHRCATKTAATTLRRRRRRRRGRR [CPP29] | 22.25
66 | RRRVGRRAPRRRRR [CPP51] | 0
67 | RRSGRRQRRRRRRRRKR [CPP66] | 23.38
68 | RRSKRDVRGRQRRRRRRRLFPRR [CPP1] | 21.07
69 | RRSLLSRRIRRRLRRRPKPRRRRRRR [CPP46] | 9.31
70 | RRWRRRRSRRRRRRRRR [CPP18] | 0
71 | RSGRRDRRRKKGSAR [CPP59] | 0
72 | RSSRRAAEGRRRRRRRREKR [CPP36] | 0
73 | RTSKRRVRRRRRRR [CPP38] | 0
74 | RVRSSRRAAEGRRRRRRREKR [CPP37] | 1.94
